# Test results reported in a melting point compilation (Tetko et al.).
row,Compound,melting point [°C]
1,NC(=S)NC1CCCCC1,162
2,C#CCCCCCCCCC(=O)O,42
3,O=C1/C(=N\Nc2cccc(F)c2)C(C(F)(F)F)=NN1c1ccccc1,105 to 107
4,FC(F)(F)c1cc(-c2n[nH]c(=S)[nH]2)cc(C(F)(F)F)c1,280
5,N=c1oc2ccccc2cc1-c1nc2ccccc2s1,186
6,N#Cc1nc(C#N)nc(C#N)n1,119
7,O=[N+]([O-])c1ccc(C(Cl)C(Cl)c2cccc(C(Cl)C(Cl)c3ccc([N+](=O)[O-])cc3[N+](=O)[O-])c2)c([N+](=O)[O-])c1 (stereo not given),90 to 108
8,OCCC12CC3CC(CC(C3)C1)C2,74
9,COC1OC(COC(=O)C(C)(C)C)C(O)C(OC(=O)C(C)(C)C)C1O (stereo not given),89.8
10,c1ccc2c(c1)Cc1c-2ccc2ccccc12,190
11,CCc1cc2cc(OC)c(OC)cc2c(Cc2ccccc2)n1,78
12,Nc1c(F)c(F)c(C(=O)O)c(F)c1F,183
13,CCCC#CCCCCCC,-74.7
14,CC(=O)C1(C)CCC2C3CCC4=CC(=O)CCC4=C3CCC21C (stereo not given),106
15,CC(/N=N/c1cc(Cl)cc(Cl)c1O)=C(/C(=O)N1CCOCC1)N1CCOCC1,76.5
16,Cc1c(Cl)c(Cl)c(C)c(Cl)c1Cl,216
17,O=C1CCCCCC1=O,-40
18,Cc1c(C)c(C)c2c(c1C)CC1C=CC=CN1C2=O (stereo not given),139
19,OCC1OC(n2cnc3cncnc32)C(O)C1O (stereo not given),181
20,CCOCCC(OCC)OCC,53
21,O=c1cc(NC2CCCCC2)c2ccccc2o1,194

row,Compound,melting point [°C]
1,BrC(=C(c1ccccc1)c1ccccc1)c1ccccc1,115 to 117
2,CC(=O)C(c1ccccc1)c1ccccc1,61
3,CCC(=O)Nc1ccccc1,106
4,Cc1nn(C)c2c(N)ncnc12,238
5,CCCCCCCCCCCCCCOCCOCCOCCOCCOCCOCCO,32.5
6,CCOP(=S)(S)OCC,-10
7,OC(c1ccc(Cl)cc1)(c1ccc(Cl)cc1)c1ccc(Cl)cc1,95.5
8,c1ccc(CCCCc2ccccc2)cc1,52.5
9,CCCC=C1C(=O)C2(C)CCC1C2(C)C (stereo not given),120
10,S=C(NN=Cc1c(-c2ccc(Cl)cc2)[nH]c2ccccc12)Nc1ccccc1,211 to 212
11,CC1=CC(=O)CC(=O)O1,188
12,Nc1ccc(CCc2ccc(N)cc2)cc1,137
13,CCCCCCCCCCCCOC(C)=O,1.3
14,CC1(C)OC(C)(C(OC(=O)c2ccc(Br)cc2)C2CCCCC2)CCC1C(=O)O (stereo not given),111
15,O=C(Cl)c1sccc1Cl,45 to 46
16,Brc1c2ccccc2cc2ccccc12,100
17,C=COC(C)(C)C,-112
18,CCCCCCCCCCCC#N,4
19,Nc1nn2c(-c3ccccc3)cc(=O)[nH]c2c1/N=N/c1ccc(Cl)cc1,312
20,CC(C)OC(=O)C1=C(C(=O)O)C2c3ccccc3C1c1ccccc12,176
21,COC(=O)c1sccc1S(=O)(=O)NC(=O)Nc1nc(C)nc(OC)n1,176

row,Compound,melting point [°C]
1,O=C(O)c1nc(Cl)c(Cl)c(Cl)c1Cl,172
2,CCCCCCCCCCCCCCCC(N)=O,107
3,COc1ccc2c(c1OC)CN(C)CCc1cc3c(cc1C(=O)C2)OCO3,160
4,O=Cc1sc(-c2ccccc2)nc1-c1ccccc1,121 to 123
5,COc1ccc(-c2coc3cc(O)ccc3c2=O)cc1,256
6,CSc1nc2cc(NCc3ccc4c(c3)OCO4)ccc2[nH]1,146 to 148
7,COc1cc(C)c(C(O)C#N)cc1OC (stereo not given),80
8,CC1(C)CC(NCCCCCCNC2CC(C)(C)NC(C)(C)C2)CC(C)(C)N1,64
9,NC1=NCC2c3ccccc3Cc3ccccc3N12 (stereo not given),206
10,COc1ccc(C=CC(=O)Cl)c(Cl)c1OC,86 to 88
11,O=C(NCCCC[C@H](NC(=O)OCc1ccccc1)C(=O)O)OCC1c2ccccc2-c2ccccc21,101 to 105
12,CCOc1ccc2nc3cc(N)ccc3c(N)c2c1,226
13,CC(=O)OC1CCC2(C)C(CCC3C4CCC(=O)C4(C)CCC32)C1 (stereo not given),138
14,Fc1cccc(F)c1CCl,34
15,O=C1C=CC(=O)N1c1ccc(Cc2ccc(N3C(=O)C=CC3=O)cc2)cc1,155 to 159
16,CN(C)c1ccc(C(=O)C(=O)c2ccc(N(C)C)cc2)cc1,202
17,C=CCN1C(=O)CSC1=S,43 to 46
18,Cn1nc(C(F)(F)F)c(C(=O)O)c1Cl,201 to 202
19,COc1ccc(CO)cc1O,136
20,Fc1cc(F)c(F)c(-c2c(F)c(F)cc(F)c2F)c1F,85
21,COC1CCC(C2C(=O)NC(=O)NC2=O)CC1 (stereo not given),215

row,Compound,melting point [°C]
1,c1ccc(-c2oc(-c3ccccc3)c(-c3ccccc3)c2-c2ccccc2)cc1,175
2,CCCCN(CCCC)c1ccccc1,-32.2
3,CN=C(NC)c1cc(C(C)(C)C)c(O)c(C(C)(C)C)c1,206
4,N#CCc1ccc(OCc2ccc(Cl)c(Cl)c2)cc1,76 to 77
5,CCN(CC)C(=O)C1C=C2c3cccc4[nH]cc(c34)CC2N(C)C1 (stereo not given),82.5
6,O=Cc1cc2nccnc2s1,108 to 109
7,Nc1nc(-c2ccc(Br)cc2)cc(C(F)(F)F)n1,216 to 218
8,O=C(c1ccc(Cl)cc1)c1noc(-c2cccc3ccccc23)c1S(=O)(=O)c1ccccc1,150
9,COc1cc(O)c(C(C)=O)c(OC)c1,82
10,COCCCn1c(-c2ccc(C(C)(C)C)cc2)n[nH]c1=S,116 to 118
11,CCN(Cc1ccccc1)c1ccccc1,35
12,CC(C(O)c1ccccc1)N(C)C (stereo not given),87.5
13,CCCCCCCCCCCCN(CCCCCCCCCCCC)CCCCCCCCCCCC,16
14,CC1CN1 (stereo not given),-65
15,Cc1ccc2c(c1)C1C(C3C2C2(Cl)C(Cl)=C(Cl)C3(Cl)C2(Cl)Cl)C2(Cl)C(Cl)=C(Cl)C1(Cl)C2(Cl)Cl (stereo not given),160 to 165
16,N#Cc1c(-c2ccccc2)nn(-c2ccccc2)c1N,161
17,NCCCCCCCCCCC(=O)O,191
18,CC(=O)OCC(OC(C)=O)C(OC(C)=O)C(OC(C)=O)C(OC(C)=O)C(N)=O (stereo not given),187 to 188

# More lines, now with the values ahead:
row,melting point [°C],Compound
1,246 to 248,O=C1Nc2ccccc2CCc2ccccc21
2,47,Cc1c(F)cccc1CC#N
3,131,COC(=O)C(Cl)C(Cl)c1cccc(C(Cl)C(Cl)C(=O)OC)c1 (stereo not given)
4,265 to 266,NN1C(=O)c2cccc3cccc(c23)C1=O
5,56.5,CCOC(=O)COc1cccc2ccccc12
6,105,O=Cc1cc(Br)ccc1O
7,240,COc1ccc(C(=O)O)cc1I
8,253,O=C(O)c1cc(O)c(O)c(O)c1
9,137,CC(C)(C)OC(=O)NC(Cc1cccnc1)C(=O)O (stereo not given)
10,65 to 67,CCOC(=O)Cn1cnc(Cl)c1Cl
11,101,Nc1cc(-c2cccs2)n[nH]1
12,111 to 112,CCOC(=O)c1c(-c2ccc(Cl)cc2)csc1N
13,164 to 165,O=C(O)c1cccnc1F
14,133 to 135,Cc1noc(-c2ccc(C=O)cc2)n1
15,187,O=C(O)C=Cc1ccc(Cl)c([N+](=O)[O-])c1
16,150,COc1nsnc1NS(=O)(=O)c1ccc(N)cc1
17,267 to 272,CCOC(=O)c1c[nH]c2c(F)c(F)c(F)cc2c1=O
18,116 to 119,CCSc1sc(C(=O)OC)c2c1C(=O)CC(C)(C)C2
19,139 to 142,COC(=O)C(C)(N)Cc1c[nH]c2ccccc12 (stereo not given)
20,278 to 281,O=C(O)c1ccc(N2CCOCC2)cc1
21,48,O=Cc1cccc(-c2ccncc2)c1
22,67 to 72,CN1CCN(c2ccccc2C(=O)O)CC1
23,58 to 60,O=[N+]([O-])c1cccc(N=C=S)c1
24,143 to 147,CC(Oc1ccc(O)cc1)C(=O)O (stereo not given)
25,168,COC(=O)C=Cc1ccc(C=CC(=O)OC)c(NC(C)=O)c1

row,melting point [°C],Compound
1,106 to 107,OCc1ccc(-c2cccnc2)cc1
2,58 to 60,COc1cccc(O)c1C(C)=O
3,153,COc1cc(C[N+](=O)[O-])ccc1OCc1ccccc1
4,85 to 86,OCc1ccc(-c2ccco2)cc1
5,88,CC(=O)Nc1ccccc1C(=O)c1ccccc1
6,123 to 125,O=C(O)Cc1noc2ccccc12
7,39,O=C1CCc2cc(F)ccc21
8,103,N#Cc1cc(F)ccc1[N+](=O)[O-]
9,150,CC(NC(CCc1ccccc1)C(=O)O)C(=O)N1CCCC1C(=O)O (stereo not given)
10,185 to 189,O=C1c2ccccc2C(=O)N1Cl
11,70,CC(O)c1ccc(N)cc1 (stereo not given)
12,90,Cn1c(=S)sc2ccccc21
13,150 to 153,COc1ccc2cc(C(=O)c3ccccc3)c(=O)oc2c1
14,117,Cc1ncccc1N
15,300,Nc1nc(O)nc2[nH]cnc12
16,48,COC(=O)c1ccc(N=C=S)cc1
17,-13.8,CC(=O)OCCBr
18,186 to 188,COc1cc(Cl)c(NC(C)=O)c(Cl)c1
19,166,O=C(O)c1sccc1-n1cccc1
20,174 to 176,CS(=O)(=O)c1ccc2ccn(O)c2c1
21,231,O=C1C(Cl)=C(Cl)C(=O)C(NCc2ccccc2)=C1Cl
22,232 to 235,NNC(=O)c1ccc[nH]1
23,163,COc1ccccc1NC(=O)C(C(F)(F)F)C(F)(F)F
24,73 to 75,O=Cc1ccc(Cn2cncn2)cc1
